Structures can show the parent of a compound that is named as a salt. Where two headings read alike, the source gives them in different places.
Tests used:
[1] = biological target: T1, human apical sodium-dependent transporter (SLC10A2, ASBT) (Homo sapiens, UniProt Q12908); assay: ASBT cis-inhibition of taurocholate uptake in ASBT-MDCK cells; conditions: for inhibition at 1000 µM / inhibition at 25 µM / inhibition at 200 µM / inhibition at 5 µM / inhibition at 10 µM: read-out: percent taurocholate inhibited at the highest inhibitor concentration; for potency estimated from few doses: read-out: Ki estimated from one concentration
T1 sequence (Q12908 1-348): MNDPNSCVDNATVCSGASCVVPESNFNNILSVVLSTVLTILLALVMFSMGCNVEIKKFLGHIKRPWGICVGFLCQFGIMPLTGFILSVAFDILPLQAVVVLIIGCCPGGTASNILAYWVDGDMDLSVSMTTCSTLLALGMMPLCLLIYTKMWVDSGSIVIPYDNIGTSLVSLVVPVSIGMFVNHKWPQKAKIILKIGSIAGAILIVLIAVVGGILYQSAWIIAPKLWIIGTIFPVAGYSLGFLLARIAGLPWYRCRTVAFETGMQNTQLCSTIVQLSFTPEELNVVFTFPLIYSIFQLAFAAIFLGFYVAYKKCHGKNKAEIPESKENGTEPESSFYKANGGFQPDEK

[2] = Precipitation / solubility of inhibitor in transport buffer; format: physicochemical; conditions: for precipitation / solubility in donor solution: ASBT inhibition study, 1-[…] DMSO for low water soluble compounds; for highest concentration at which no precipitation was observed: transport buffer of the ASBT inhibition study, precipitation observed above it
[3] = biological target: T1, human apical sodium-dependent transporter (SLC10A2, ASBT)
[4] = biological target: T2, excitatory amino acid transporters (SLC1A6, EAAT4) (Rattus norvegicus, UniProt O35921); assay: EAAT4 cis-inhibition of glutamate uptake in stably transfected HEK 293 cells; format: cell-based; conditions: for potency estimated from few doses: HEK293, read-out: Ki estimated from one concentration
T2 sequence (O35921 1-561): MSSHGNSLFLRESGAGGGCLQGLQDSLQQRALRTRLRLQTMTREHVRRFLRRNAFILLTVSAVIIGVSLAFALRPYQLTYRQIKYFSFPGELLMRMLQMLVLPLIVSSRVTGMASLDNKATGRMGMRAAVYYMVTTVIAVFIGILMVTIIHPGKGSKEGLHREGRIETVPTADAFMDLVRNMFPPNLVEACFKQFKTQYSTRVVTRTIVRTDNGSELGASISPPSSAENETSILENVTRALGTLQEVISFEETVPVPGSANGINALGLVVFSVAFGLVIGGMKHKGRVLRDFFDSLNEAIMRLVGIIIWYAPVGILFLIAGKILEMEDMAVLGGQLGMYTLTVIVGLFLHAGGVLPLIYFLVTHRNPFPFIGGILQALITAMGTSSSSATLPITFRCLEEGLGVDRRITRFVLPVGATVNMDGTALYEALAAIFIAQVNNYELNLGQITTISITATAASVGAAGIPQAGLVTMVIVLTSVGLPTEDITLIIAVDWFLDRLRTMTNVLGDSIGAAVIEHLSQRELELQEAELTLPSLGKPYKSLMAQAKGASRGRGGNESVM

[5] = biological target: T3, human organic cation/carnitine transporter (SLC22A5, OCTN2) (Homo sapiens, UniProt O76082); assay: OCTN2 cis-inhibition of L-carnitine uptake in OCTN2-MDCK cells; format: cell-based; conditions: for potency estimated from few doses: read-out: Ki estimated from one concentration
T3 sequence (O76082 1-557): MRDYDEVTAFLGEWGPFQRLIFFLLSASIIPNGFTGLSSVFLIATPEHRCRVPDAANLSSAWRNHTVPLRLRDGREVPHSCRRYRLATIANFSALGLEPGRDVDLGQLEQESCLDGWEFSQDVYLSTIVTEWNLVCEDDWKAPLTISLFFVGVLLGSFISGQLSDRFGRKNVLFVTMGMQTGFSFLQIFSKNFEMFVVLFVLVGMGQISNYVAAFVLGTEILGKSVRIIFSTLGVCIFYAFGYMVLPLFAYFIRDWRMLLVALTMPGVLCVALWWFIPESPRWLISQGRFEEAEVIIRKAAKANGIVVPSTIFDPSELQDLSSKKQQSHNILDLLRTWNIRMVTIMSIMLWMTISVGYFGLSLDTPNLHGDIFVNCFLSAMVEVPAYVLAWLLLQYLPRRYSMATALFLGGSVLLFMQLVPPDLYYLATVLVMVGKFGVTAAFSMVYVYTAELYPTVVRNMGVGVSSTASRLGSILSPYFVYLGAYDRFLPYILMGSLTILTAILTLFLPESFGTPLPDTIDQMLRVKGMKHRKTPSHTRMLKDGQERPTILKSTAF

ASBT = ASBT (Homo sapiens, UniProt Q12908); conditions: substrate uptake studies
[6] = Ki, inhibitor concentration range 0-1000 μM, mean±S.E.
[7] = Ki, inhibitor concentration range 0-50 μM, mean±S.E.
[8] = Ki, inhibitor concentration range 0-5 μM
[9] = Ki, inhibitor concentration range 0-10 μM
[10] = Ki, inhibitor concentration range 0-20 μM
[11] = Ki, inhibitor concentration range 0-50 μM
[12] = Ki, inhibitor concentration range 0-100 μM
[13] = Ki, inhibitor concentration range 0-[…]
[14] = Reference Ki, from the comprehensive inhibition profile
[15] = Ki, inhibitor concentration range 0-200 μM
[16] = Ki, inhibitor concentration range 0-500 μM
[17] = Ki, inhibitor concentration range 0-100 μM, mean±S.E.
[18] = Ki, inhibitor concentration range 0-200 μM, mean±S.E.
[19] = Ki, inhibitor concentration range 0-500 μM, mean±S.E.
[20] = Ki, inhibitor concentrations 0, 25 μM (Table 2), mean±S.E.
[21] = Ki, inhibitor concentration range 0-5 μM, mean±S.E.
[22] = Ki, inhibitor concentration range 0-10 μM, mean±S.E.
[23] = Ki, inhibitor concentration range 0-25 μM, mean±S.E.

Cc1cccc(Nc2ccncc2S(=O)(=O)NC(=O)NC(C)C)c1 [torsemide]
Ki [1, 6]: 460 µM | inhibition at 1000 µM [1]: 58.4% | precipitation / solubility in donor solution [2]: incomplete solubility at higher drug concentrations | highest concentration at which no precipitation was observed [2]: 1000 µM

CCOC(=O)C1=C(C)NC(C)=C(C(=O)OC)C1c1cccc([N+](=O)[O-])c1 (stereo not shown) [nitrendipine]
Ki [1, 7]: 43.9 µM | precipitation / solubility in donor solution [2]: incomplete solubility at higher drug concentrations | highest concentration at which no precipitation was observed [2]: 50 µM | inhibition ([3]; 50 µM): 39.7%

N[C@@H](CC(=O)O)C(=O)O [L-Aspartic acid]
potency estimated from few doses [4]: 3.03 ± 0.3 µM | Ki [4, 8]: 1.72 ± 0.14 µM | Ki [4, 9]: 1.77 ± 0.12 µM | Ki [4, 10]: 1.83 ± 0.14 µM | Ki [4, 11]: 1.88 ± 0.18 µM | Ki [4, 12]: 1.92 ± 0.23 µM | Ki [4, 13]: 2.01 ± 0.13 µM | Ki [4, 14]: 1.92 µM

CC[C@]1(O)C[C@H]2CN(CCc3c([nH]c4ccccc34)[C@@](C(=O)OC)(c3cc4c(cc3OC)N(C=O)[C@H]3[C@@](O)(C(=O)OC)[C@H](OC(C)=O)[C@]5(CC)C=CCN6CC[C@]43[C@@H]65)C2)C1 [Vincristine sulfate]
Ki [5, 9]: 14.9 ± 2 µM | Ki [5, 10]: 14.5 ± 1.2 µM | Ki [5, 11]: 14.6 ± 1.5 µM | Ki [5, 12]: 15.7 ± 1.6 µM | Ki [5, 15]: 15.9 ± 1.5 µM | Ki [5, 16]: 15.9 ± 1.4 µM | Ki [5, 14]: 15.9 µM | potency estimated from few doses [5]: 14.7 ± 3.1 µM

N[C@H](CC(=O)O)C(=O)O [D-Aspartic acid]
potency estimated from few doses [4]: 8.4 ± 0.81 µM | Ki [4, 8]: 9.06 ± 1.51 µM | Ki [4, 9]: 8.72 ± 0.76 µM | Ki [4, 10]: 8.58 ± 0.59 µM | Ki [4, 11]: 8.95 ± 0.57 µM | Ki [4, 12]: 9.21 ± 0.57 µM | Ki [4, 15]: 9.54 ± 0.75 µM | Ki [4, 14]: 9.54 µM

CC(C)(C#N)c1cc(Cn2cncn2)cc(C(C)(C)C#N)c1 [Anastrozole]
Ki [1, 7]: 231 ± 87 µM | Ki [1, 17]: 451 ± 163 µM | Ki [1, 18]: 700 ± 196 µM | Ki [1, 19]: 686 ± 99 µM | Ki [1, 6]: 745 ± 74 µM | Ki [1, 20]: 153 ± 79 µM | Ki [1, 14]: 745 µM | potency estimated from few doses [1]: 601 ± 69 µM | inhibition at 25 µM [1]: 9.73% | inhibition at 200 µM [1]: 18% | inhibition at 1000 µM [1]: 48.3% | inhibition ([3]; 50 µM): 12% | inhibition ([3]; 100 µM): 13.2% | inhibition ([3]; 500 µM): 35.6%

CCCCOc1cc(C(=O)NCCN(CC)CC)c2ccccc2n1 [Dibucaine hydrochloride, dibucaine hydrochloride]
Ki [1, 7]: 93.2 ± 12.5 µM | Ki [1, 17]: 85.8 ± 7.6 µM | Ki [1, 18]: 96.2 ± 7.7 µM | Ki [1, 19]: 101 ± 7 µM | Ki [1, 6]: 101 ± 6 µM | Ki [1, 20]: 140 ± 17 µM | Ki [1, 14]: 101 µM | potency estimated from few doses [1]: 116 ± 3 µM | inhibition at 25 µM [1]: 10.5% | inhibition at 200 µM [1]: 53.9% | inhibition at 1000 µM [1]: 86.7% | inhibition ([3]; 50 µM): 27.6% | inhibition ([3]; 100 µM): 43.8% | inhibition ([3]; 500 µM): 73.7%

COc1cccc2c1C(=O)c1c(O)c3c(c(O)c1C2=O)C[C@@](O)(C(C)=O)C[C@@H]3O[C@H]1C[C@H](N)[C@H](O)[C@H](C)O1 [Daunorubicin hydrochloride, daunorubicin hydrochloride]
Ki [5, 12]: 424 ± 122 µM | Ki [5, 15]: 375 ± 63 µM | Ki [5, 16]: 443 ± 56 µM | Ki ([5]; Ki, inhibitor concentration range 0-1000 μM): 484 ± 48 µM | Ki ([5]; Ki, inhibitor concentration range 0-1500 μM): 496 ± 41 µM | Ki [5, 14]: 496 µM | potency estimated from few doses [5]: 488 ± 47 µM

COC(=O)C1=C(C)NC(C)=C(C(=O)OC(C)C)C1c1cccc2nonc12 (stereo not shown) [Isradipine, isradipine]
Ki [1, 21]: 17.5 ± 6.6 µM | Ki [1, 22]: 53.4 ± 35.1 µM | Ki [1, 23]: 60.4 ± 19.6 µM | Ki [1, 7]: 42.7 ± 7.4 µM | Ki [1, 17]: 38.8 ± 5.1 µM | Ki [1, 18]: 36.4 ± 4.2 µM | Ki ([1]; Ki, inhibitor concentration range 0-[…], mean±S.E.): 9.55 ± 3.67 µM | Ki [1, 14]: 36.4 µM | potency estimated from few doses [1]: 32.7 ± 2.7 µM | inhibition at 5 µM [1]: 14.4% | inhibition at 10 µM [1]: 12.1% | inhibition at 25 µM [1]: 25.7% | inhibition at 200 µM [1]: 82.5% | inhibition ([3]; 50 µM): 49.7% | inhibition ([3]; 100 µM): 68.1%

C[C@H](CCC(=O)NCCS(=O)(=O)O)[C@H]1CC[C@H]2[C@@H]3[C@H](O)C[C@@H]4C[C@H](O)CC[C@]4(C)[C@H]3C[C@H](O)[C@]12C [taurocholate]
Kt (Michaelis-Menten constant for transporter mediated transport) (ASBT): 5.03 µM

CC(C)OC(=O)CCC/C=C\C[C@@H]1[C@@H](CC[C@@H](O)CCc2ccccc2)[C@H](O)C[C@@H]1O [Latanoprost, latanoprost]
Ki [1, 21]: 19.3 ± 6.7 µM | Ki [1, 22]: 12.2 ± 2.9 µM | Ki [1, 23]: 14 ± 2.8 µM | Ki [1, 7]: 15.1 ± 2.4 µM | Ki [1, 17]: 14.3 ± 2 µM | Ki [1, 18]: 13.6 ± 1.9 µM | Ki [1, 19]: 13.3 ± 1.9 µM | Ki [1, 14]: 13.3 µM | potency estimated from few doses [1]: 17.3 ± 2.7 µM | inhibition at 5 µM [1]: 28.1% | inhibition at 10 µM [1]: 34.3% | inhibition at 25 µM [1]: 46.9% | inhibition at 200 µM [1]: 90% | inhibition ([3]; 50 µM): 60.3% | inhibition ([3]; 100 µM): 79.4% | inhibition ([3]; 500 µM): 96.2%

C[N+](C)(C)C[C@@H](O)CC(=O)[O-] [D-carnitine]
Ki ([5]; Ki, inhibitor concentration range 0-1 μM): 8.9 ± 4 µM | Ki [5, 8]: 10.2 ± 1.1 µM | Ki [5, 9]: 11.5 ± 0.9 µM | Ki [5, 10]: 11.8 ± 0.7 µM | Ki [5, 11]: 12 ± 0.6 µM | Ki [5, 12]: 12.1 ± 0.5 µM | Ki [5, 15]: 12.2 ± 0.5 µM | Ki [5, 13]: 9 ± 1.5 µM | Ki [5, 14]: 12.2 µM | potency estimated from few doses [5]: 12.2 ± 0.5 µM

CN1CCCCC1CCN1c2ccccc2Sc2ccc([S+](C)[O-])cc21 (stereo not shown) [Mesoridazine besylate]
Ki [1, 7]: 69.9 ± 19.5 µM | Ki [1, 17]: 59.6 ± 9.9 µM | Ki [1, 18]: 63.6 ± 8.2 µM | Ki [1, 19]: 64.9 ± 7.3 µM | Ki [1, 6]: 63.5 ± 6.6 µM | Ki [1, 14]: 63.5 µM | potency estimated from few doses [1]: 59.5 ± 7.3 µM | inhibition at 200 µM [1]: 62.2% | inhibition at 1000 µM [1]: 94% | inhibition ([3]; 50 µM): 31.3% | inhibition ([3]; 100 µM): 52.5% | inhibition ([3]; 500 µM): 79.8%

Reference: paper PMC2909451 (European journal of pharmaceutical sciences : official …, 2010)
